Reference: patent US20150309047A1, “CIRCULATING PROTEOLYTIC BIOMARKERS OF CELL DEATH AND METHODS FOR THE USE THEREOF” (The Regents of the University of California, priority 2014, published 2015)
Residues, ends and D or L forms follow the SMILES beside them. *: point of attachment. Cbz = O=C(OCc1ccccc1)*; CH2F = FC*

Legend:
Type in all cases: cell-based, human
Jurkat cells [1] = experiment: Immunoblotting of caspase substrate proteolysis during apoptosis in Jurkat cells
Procedure: Jurkat cells at a density of 1×10^6 cells/ml were treated with etoposide (50 μM) for 0, 2, 4, 8, 12, and 24 hours prior to harvesting. Harvested cells were pelleted at 2,000×g and 25° C. for 5 minutes, washed twice with phosphate buffered saline, and lysed at a concentration of 2×10^7 cells/ml in 1.0% SDS, phosphate buffered saline, 100 μM Z-VAD-FMK, 100 μM E-64, 1 mM PMSF, 1 mM AEBSF, 5 mM EDTA, and 10 mM sodium butyrate. Whole cell lysates were sonicated to shear genomic DNA, normalized to a protein concentration of approximately 2 mg/ml, as determined by BCA assay (Pierce). Cell lysates for each apoptotic timepoint were then analyzed by SDS-PAGE and Western blot. Mouse monoclonal anti-caspase-3 (#9668) and rabbit polyclonal anti-HDAC3 (#2632) antibodies were purchased from Cell Signaling Technology. Mouse monoclonal anti-DFF45 (#611036) antibody was purchased from BD Transduction Laboratories. Goat polyclonal anti-N-Cor (#sc-1611) and rabbit polyclonal anti-HDAC7 (#sc-11412) antibodies were purchased from Santa Cruz Biotechnology. Rabbit polyclonal anti-TBLR1 (#A300-408A), rabbit polyclonal anti-SHARP (#A301-119A), and rabbit polyclonal anti-RBBP7 (#A300-959A) antibodies were purchased from Bethyl Laboratories. Rabbit polyclonal anti-SMRTe (#06-891) antibody was purchased from Millipore. Western blots were imaged using SuperSignal West Femto Substrate (Pierce) with a FluorChem SP imager (Alpha Innotech). DNA fragmentation of whole cell DNA was analyzed by agarose gel with the Apoptotic DNA Ladder Kit (Roche).

MM1.S = experiment: N-terminal labeling and MS of proteolytic fragments released into media from drug-treated cultured cells; settings: MM1.S treated with bortezomib for at least 21 h
Procedure: (§1) MM1.S and SU-DHL-8 lines were obtained from ATCC; MOLM-13 from DMSZ. Cell lines were grown in RPMI-1640 media without fetal bovine serum for 24 h prior to drug treatment at indicated doses. After treatment, cells and debris were separated from media by low speed (800×g, 5 min), followed by high speed (24,000×g, 1 h) centrifugation. Total protein in media was precipitated with trichloroacetic acid, resuspended in 8M guanidine HCl, then subjected to N-terminal labeling as described (Wiita A P, et al. (2013) Global cellular response to chemotherapy-induced apoptosis. Elife 2:e01236).
(§2) Three cell lines treated with different drugs were evaluated: i) MM1.S, derived from multiple myeloma and treated with the proteasome inhibitor bortezomib, ii) MOLM-13, derived from acute myeloid leukemia and treated with the nucleoside analog cytarabine, and iii) SU-DHL-8, derived from diffuse large B-cell lymphoma and treated with the DNA-damaging agent doxorubicin. All of these conditions reflect the diagnoses of patients in the discovery cohort combined with clinically used chemotherapeutics. Under each condition the cells were either treated with drug or mock-treated for at least 21 h. […] After removing whole cells, proteins in the media were precipitated with trichloroacetic acid and then subjected to N-terminal labeling by subtiligase. FBS-free media was used in these experiments to avoid contamination from normal bovine plasma proteins.

MOLM-13 = experiment: as above; settings: MOLM-13 treated with cytarabine for at least 21 h
Procedure: as §1, §2

SU-DHL-8 = experiment: as above; settings: SU-DHL-8 treated with doxorubicin for at least 21 h
Procedure: as §1, §2

Jurkat cells [2] = experiment: Subtiligase N-terminal labeling and LC/MS/MS degradomic analysis of etoposide-treated apoptotic Jurkat cells; settings: Jurkat cells treated with etoposide
Procedure: Jurkat clone E6-1 (ATCC) cells were grown in RPMI-1640 supplemented with 10% fetal bovine serum, sodium pyruvate, and antibiotics. Normal cells were harvested for experiments at a density of 1×10^6 cells/ml. For apoptotic samples, cells at a density of 1×10^6 cells/ml were treated with etoposide (50 μM) for 12 hours prior to harvesting. Harvested cells (0.1 to 1 billion) were pelleted at 2,000×g and 25° C. for 5 minutes, washed twice with phosphate buffered saline, and lysed at a typical concentration of 2×10^8 cells/ml in 1.0% Triton X-100, 100 mM BICINE pH 8.0, 100 μM Z-VAD-FMK, 100 μM E-64, 1 mM PMSF, 1 mM AEBSF, and 5 mM EDTA. Cell lysates were incubated at room temperature for 1 hour to allow complete inhibition of endogenous protease and esterase activity, and centrifuged at 21,000×g and 4° C. for 15 minutes to pellet insoluble material. Clarified supernatant was immediately used in ligation reactions at a protein concentration of approximately 20 mg/ml, as determined by Bradford assay (Bio-Rad).
Subtiligase (1 μM), biotinylated peptide ester (1 mM), and DTT (2 mM) were added to either control or apoptotic cell lysate. Ligation reactions were typically left to proceed at room temperature for 60 minutes. […]

[3] = Jurkat cells, 50 μM etoposide, immunoblot

`COC(=O)C[C@H](NC(=O)[C@H](C)NC(=O)[C@@H](NC(=O)OCc1ccccc1)C(C)C)C(=O)CF` [Z-VAD(OMe)-fmk] (Cbz-Val-Ala-Asp(OMe)-CH2F) was tested, and the “cleavage of representative substrates HDAC7, Ku80, RCOR2, TBLR1, and UBP36” value (Jurkat cells [1]; etoposide-treated Jurkat cells with caspase inhibitor) was “blocked”.

In the case of `CC(C)C[C@H](NC(=O)[C@H](Cc1ccccc1)NC(=O)c1cnccn1)B(O)O` [bortezomib], the “apoptosis of treated cells” value (MM1.S) is reported as “at least 50%”.

`Nc1ccn([C@@H]2O[C@H](CO)[C@@H](O)[C@@H]2O)c(=O)n1` [cytarabine] was tested, and the “apoptosis of treated cells” value (MOLM-13) was “at least 50%”.

`COc1cccc2c1C(=O)c1c(O)c3c(c(O)c1C2=O)C[C@@](O)(C(=O)CO)C[C@@H]3O[C@H]1C[C@H](N)[C@H](O)[C@H](C)O1` [doxorubicin] was tested, and the “apoptosis of treated cells” value (SU-DHL-8) was “at least 50%”.

With `COc1cc([C@@H]2c3cc4c(cc3[C@@H](O[C@@H]3O[C@@H]5CO[C@@H](C)O[C@H]5[C@H](O)[C@H]3O)[C@H]3COC(=O)[C@H]23)OCO4)cc(OC)c1O` [etoposide] the “N-termini identified in apoptotic cells derived from P1 aspartate cleavages” value (Jurkat cells [2]; large-scale (2D LC/MS/MS) experiments) was 43%, the “N-termini identified in apoptotic cells derived from P1 aspartate cleavages” value (Jurkat cells [2]; small-scale (1D LC/MS/MS) experiments) was 43% and the “proteolysis of CM, Ku80, LCOR, and RBBP7 (time courses)” value (Jurkat cells [1]; [3]) was “partial cleavage”. For the same molecule, the “proteolysis of HDAC6, HDAC7, N-CoR, RCOR2, SHARP, TBLR1, UBPS, and UBP36 (time courses)” value (Jurkat cells [1]; [3]) was “full cleavage”.
